Reference: patent US12492173B2, “Herbicidal substituted N-tetrazolyl aryl carboxamides” (Bayer Aktiengesellschaft, priority 2019, dated 2025)

Columns and labels:
Format in all cases: in vivo
Setaria viridis [1] = test: Post-emergence herbicidal action, SETVI; design: key: % herbicidal action vs untreated; 100 = plants died, 0 = like control
In short: (§1)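 Greenhouse weeds grown in sandy loam were sprayed at the one-leaf stage, 2–3 weeks after sowing, with WP or EC formulations at 600–800 l/ha water plus 0.2% wetting agent. Damage scored visually about 3 weeks later, in percent against untreated controls (100% = plants dead).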

Abutilon theophrasti = test: Post-emergence herbicidal action, ABUTH; design: key: % herbicidal action vs untreated; 100 = plants died, 0 = like control
In short: as §1

Polygonum convolvulus = test: Pre-emergence herbicidal action, POLCO; details: dosage 320 g/ha, scored visually after 3 weeks vs untreated controls (100% = plants have died)
In short: (§2)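 Herbicidal activity is expressed in percent, scored by eye after a 3-week greenhouse period, with 0% matching untreated plants and 100% meaning death. Compounds, as wettable powders or emulsion concentrates, are applied pre-emergence to the covering soil.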

Echinochloa crus-galli = test: Post-emergence herbicidal action, ECHCG; design: key: % herbicidal action vs untreated; 100 = plants died, 0 = like control
In short: as §1

Setaria viridis [2] = test: Pre-emergence herbicidal action, SETVI; details: dosage 320 g/ha, scored visually after 3 weeks vs untreated controls (100% = plants have died)
In short: as §2

Amaranthus retroflexus = test: Pre-emergence herbicidal action, AMARE; details: dosage 320 g/ha, scored visually after 3 weeks vs untreated controls (100% = plants have died)
In short: as §2

| SMILES | herbicidal action SETVI (Setaria viridis [1]; Dosage 80 g/ha) | herbicidal action ABUTH (Abutilon theophrasti; Dosage 80 g/ha) | herbicidal activity POLCO (Polygonum convolvulus) [%] | herbicidal action ECHCG (Echinochloa crus-galli; Dosage 80 g/ha) | herbicidal activity SETVI (Setaria viridis [2]) [%] | herbicidal activity AMARE (Amaranthus retroflexus) [%] | herbicidal action SETVI (Setaria viridis [1]; post-emergence, dosage 80 g/ha) [%] | herbicidal action ABUTH (Abutilon theophrasti; post-emergence, dosage 80 g/ha) [%] | herbicidal action ECHCG (Echinochloa crus-galli; post-emergence, dosage 80 g/ha) [%] |
| --- | --- | --- | --- | --- | --- | --- | --- | --- | --- |
| Cn1nnnc1NC(=O)c1ccc(C(F)(F)F)c(CS(C)(=O)=O)c1Br [Example 1-382, 2-bromo-3-[(methylsulfonyl)methyl]-N-(1-methyl-1H-tetrazol-5-yl)-4-(trifluoromethyl)benzamide] | 90 | 100 | 90 | 90 | 100 | 100 | – | – | – |
| Cn1nnnc1NC(=O)c1ccc(Cl)c(CS(C)(=O)=O)c1Cl [Example 1-561] | 100 | 90 | 100 | 100 | 100 | 100 | – | – | – |
| CCn1nnnc1NC(=O)c1ccc(C(F)F)c(CSC)c1C [Example 2-107] | 90 | 90 | 80 | 90 | 100 | 100 | – | – | – |
| CCn1nnnc1NC(=O)c1ccc(C(F)(F)F)c(C[S+](C)[O-])c1OC (stereo not drawn) [Example 2-135] | 100 | 100 | 90 | 100 | 100 | 100 | – | – | – |
| CCn1nnnc1NC(=O)c1ccc(C(F)(F)F)c(CS(C)(=O)=O)c1OC [Example 2-136] | 100 | 100 | 100 | 100 | 80 | 100 | – | – | – |
| CCn1nnnc1NC(=O)c1ccc(C(F)(F)F)c(CSC)c1SC [Example 2-161] | – | – | 90 | – | 100 | 100 | 100 | 90 | 90 |
| CCn1nnnc1NC(=O)c1ccc(C(F)(F)F)c(CS(C)(=O)=O)c1SC [Example 2-163] | 90 | 100 | 100 | 100 | 100 | 100 | – | – | – |
| CCn1nnnc1NC(=O)c1ccc(C(F)(F)F)c(CSC)c1Br [Example 2-380] | – | – | 90 | – | 100 | 100 | 100 | 80 | 90 |
| CCn1nnnc1NC(=O)c1ccc(C(F)(F)F)c(CS(C)(=O)=O)c1Br [Example 2-382] | 90 | 100 | 90 | 90 | 100 | 100 | – | – | – |
| CCSCc1c(C(F)(F)F)ccc(C(=O)Nc2nnnn2CC)c1Br [Example 2-383] | – | – | 90 | – | 100 | 100 | 100 | 100 | 90 |
| CCCn1nnnc1NC(=O)c1ccc(C(F)F)c(CSC)c1C [Example 3-107] | 90 | 80 | 90 | 90 | 100 | 100 | – | – | – |
| CCCn1nnnc1NC(=O)c1ccc(C(F)(F)F)c(CSC)c1OC [Example 3-134] | 100 | 100 | 80 | 100 | 100 | 100 | – | – | – |
| CCCn1nnnc1NC(=O)c1ccc(C(F)(F)F)c(CS(C)(=O)=O)c1OC [Example 3-136] | 100 | 100 | 80 | 100 | 100 | 100 | – | – | – |
| CCCn1nnnc1NC(=O)c1ccc(C(F)(F)F)c(CSC)c1Cl [Example 3-296] | 90 | 100 | 90 | 100 | 100 | 100 | – | – | – |
| CCCn1nnnc1NC(=O)c1ccc(C(F)(F)F)c(CSCC)c1Cl [Example 3-299] | 90 | 90 | 90 | 90 | 100 | 100 | – | – | – |
| CCCn1nnnc1NC(=O)c1ccc(C(F)F)c(CSC)c1Cl [Example 3-320] | 100 | 100 | 90 | 100 | 100 | 100 | – | – | – |
| CCCn1nnnc1NC(=O)c1ccc(C(F)F)c(C[S+]([O-])CC)c1Cl (stereo not drawn) [Example 3-324] | 100 | 100 | 100 | 100 | 100 | 100 | – | – | – |
| CCCn1nnnc1NC(=O)c1ccc(C(F)(F)F)c(CSC)c1Br [Example 3-380] | 90 | 80 | 80 | 90 | 100 | 100 | – | – | – |
| CCCn1nnnc1NC(=O)c1ccc(C(F)(F)F)c(C[S+](C)[O-])c1Br (stereo not drawn) [Example 3-381] | – | – | 80 | – | 90 | 100 | 90 | 90 | 90 |
| CCCn1nnnc1NC(=O)c1ccc(C(F)(F)F)c(CSCC)c1Br [Example 3-383] | 90 | 90 | 90 | 90 | 100 | 100 | – | – | – |
| CCCn1nnnc1NC(=O)c1ccc(C(F)(F)F)c(CS(=O)(=O)CC)c1Br [Example 3-385] | 90 | 100 | 80 | 100 | 100 | 100 | – | – | – |
